Where two headings read alike, the source gives them in different places. Marks after values point to notes of the source that are not given here.
Experiments:
[1] = logarithm of human skin permeation coefficient, neutral form; corrected for ionization in water and for temperature at 37 °C; cited from earlier work
[2] = skin-PAMPA permeability assay (gradient-pH, UPLC-DAD); details: for Papp at 4 h, 50 μM / Papp at 30 min, 50 μM / Papp at 24 h, 50 μM: PAMPA
[3] = PAMPA
[4] = parameters: method as in earlier work; details: octanol-water partition coefficient; cited from earlier work
[5] = cited from earlier work
[6] = skin-PAMPA membrane stability after pre-treatment at basic pH; details: membrane soaked at pH 7, 8, 9, 10 for 30 min or 4 h; then assay 4 h with stirring, donor pH 5, acceptor pH 7.4; versus untreated membrane
Experimental: Then, a standard permeation assay was carried out with an incubation time of 4 h and stirring at pH 5 in the donor compartment and pH 7.4 in the acceptor compartment. Simultaneously, permeation assays were also performed without the previous soaking treatment at basic pH.

[7] = pH 7.4, log Pe, optimized assay conditions (4 h incubation, stirring), measured at the pH corresponding to the neutral form, acceptor pH 7.4
[8] = mole fraction, with stirring, 30 min incubation, neutral form
[9] = mole fraction, with stirring, 4 h incubation, neutral form
[10] = mole fraction, with stirring, 24 h incubation, neutral form
[11] = mole fraction, without stirring, 30 min incubation, neutral form
[12] = mole fraction, without stirring, 4 h incubation, neutral form
[13] = mole fraction, without stirring, 24 h incubation, neutral form
[14] = log Pe, with stirring, 4 h incubation, neutral form (donor pH 3.0, aminopyrine pH 7.0), acceptor pH 7.4, 32 °C
[15] = log Pe, without stirring, 30 min incubation, neutral form (donor pH 3.0, aminopyrine pH 7.0), acceptor pH 7.4, 32 °C
[16] = log Pe, without stirring, 4 h incubation, neutral form (donor pH 3.0, aminopyrine pH 7.0), acceptor pH 7.4, 32 °C
[17] = optimized assay conditions (4 h incubation, stirring), measured at the pH corresponding to the neutral form, acceptor pH 7.4
[18] = with stirring, 30 min incubation, neutral form (donor pH 3.0, aminopyrine pH 7.0), acceptor pH 7.4, 32 °C
[19] = log Pe, with stirring, 24 h incubation, neutral form (donor pH 3.0, aminopyrine pH 7.0), acceptor pH 7.4, 32 °C
[20] = log Pe, without stirring, 24 h incubation, neutral form (donor pH 3.0, aminopyrine pH 7.0), acceptor pH 7.4, 32 °C

## Oc1ccccc1O [Catechol]
[1]
  log Kp: -5.87 cm/s
[2]; [7]
  Papp at 4 h, 50 μM: 4.07 ×10⁻⁶ cm/s

## C[C@]12CCC(=O)C=C1CC[C@@H]1[C@@H]2CC[C@@]2(C)[C@H]1CC[C@]2(O)C(=O)CO [Cortexolone]
[1]
  log Kp: -7.20 cm/s
[2]; [7]
  Papp at 4 h, 50 μM: 3.55 ×10⁻⁶ cm/s

## O=C(O)Cc1ccccc1Nc1c(Cl)cccc1Cl [Diclofenac]
[1]
  log Kp: -5.30 cm/s
[2]; [7]
  Papp at 4 h, 50 μM: 162 ×10⁻⁶ cm/s

## C[C@H]1O[C@@H](O[C@H]2[C@@H](O)C[C@H](O[C@H]3[C@@H](O)C[C@H](O[C@H]4CC[C@@]5(C)[C@H](CC[C@@H]6[C@@H]5CC[C@]5(C)[C@@H](C7=CC(=O)OC7)CC[C@]65O)C4)O[C@@H]3C)O[C@@H]2C)C[C@H](O)[C@@H]1O [Digitoxin]
[3]
  log Pe: -6.34(±0.13) cm/s
[1]
  log Kp: -8.15 cm/s
[2]; [8]
  RM (membrane retention): 0.00
[2]; [9]
  RM (membrane retention): 0.22(±0.04)
[2]; [10]
  RM (membrane retention): 0.29(±0.05)
[2]; [11]
  RM (membrane retention): 0.00
[2]; [12]
  RM (membrane retention): 0.09(±0.03)
[2]; [13]
  RM (membrane retention): 0.25(±0.02)

## C[C@]12CC[C@@H]3c4ccc(O)cc4CC[C@H]3[C@@H]1CC[C@@H]2O [Estradiol]
[1]
  log Kp: -5.61 cm/s

## CC(=O)OCC(=O)[C@@]12OC(C)(C)O[C@@H]1C[C@H]1[C@@H]3C[C@H](F)C4=CC(=O)C=C[C@]4(C)[C@@]3(F)[C@@H](O)C[C@@]12C [Fluocinonide]
[2]; [7]
  Papp at 4 h, 50 μM: 4.17 ×10⁻⁶ cm/s

## CC(C(=O)O)c1ccc(-c2ccccc2)c(F)c1 (centres unmarked) [Flurbiprofen]
[4]
  log Po/w: 4.16
[5]
  pKa: 4.19 ^c
[1]
  log Kp: -4.72 cm/s
[2]; [14]
  Papp at 4 h, 50 μM: 204 ×10⁻⁶ cm/s
[2]; [15]
  Papp at 30 min, 50 μM: 288 ×10⁻⁶ cm/s
[2]; [16]
  Papp at 4 h, 50 μM: 141 ×10⁻⁶ cm/s
[2]; [8]
  RM (membrane retention): 0.18(±0.03)
[2]; [9]
  RM (membrane retention): 0.00
[2]; [10]
  RM (membrane retention): 0.00
[2]; [11]
  RM (membrane retention): 0.13(±0.02)
[2]; [12]
  RM (membrane retention): 0.00
[2]; [13]
  RM (membrane retention): 0.00
[2]; [17]
  log Pe: -3.69±0.01 cm/s
[2]; [18]
  log Pe: -2.98(±0.13) cm/s

## COC1=CC(=O)C[C@@H](C)[C@]12Oc1c(Cl)c(OC)cc(OC)c1C2=O [Griseofulvin]
[4]
  log Po/w: 2.18
[1]
  log Kp: -6.44 cm/s
[2]; [14]
  Papp at 4 h, 50 μM: 5.62 ×10⁻⁶ cm/s
[2]; [19]
  Papp at 24 h, 50 μM: 7.59 ×10⁻⁶ cm/s
[2]; [15]
  Papp at 30 min, 50 μM: 2.24 ×10⁻⁶ cm/s
[2]; [16]
  Papp at 4 h, 50 μM: 4.68 ×10⁻⁶ cm/s
[2]; [20]
  Papp at 24 h, 50 μM: 6.31 ×10⁻⁶ cm/s
[2]; [7]
  Papp at 4 h, 50 μM: 5.25 ×10⁻⁶ cm/s
[2]; [8]
  RM (membrane retention): 0.06(±0.01)
[2]; [9]
  RM (membrane retention): 0.19(±0.01)
[2]; [10]
  RM (membrane retention): 0.24(±0.02)
[2]; [11]
  RM (membrane retention): 0.03(±0.02)
[2]; [12]
  RM (membrane retention): 0.16(±0.01)
[2]; [13]
  RM (membrane retention): 0.20(±0.02)
[2]; [18]
  log Pe: -5.61(±0.01) cm/s
[6]
  change of skin-PAMPA log Pe after membrane treatment at basic pH: slight increase at pH 9 and 10

## Oc1ccc(O)cc1 [Hydroquinone]
[1]
  log Kp: -6.31 cm/s
[2]; [7]
  Papp at 4 h, 50 μM: 1.35 ×10⁻⁶ cm/s

## CC(=O)[C@@]1(O)CC[C@H]2[C@@H]3CCC4=CC(=O)CC[C@]4(C)[C@H]3CC[C@@]21C [Hydroxyprogesterone]
[1]
  log Kp: -6.30 cm/s
[2]; [17]
  log Pe: -4.70±0.05 cm/s

## CC(C)Cc1ccc(C(C)C(=O)O)cc1 (centres unmarked) [Ibuprofen]
[1]
  log Kp: -4.58 cm/s
[2]; [14]
  Papp at 4 h, 50 μM: 245 ×10⁻⁶ cm/s
[2]; [15]
  Papp at 30 min, 50 μM: 257 ×10⁻⁶ cm/s
[2]; [16]
  Papp at 4 h, 50 μM: 224 ×10⁻⁶ cm/s
[2]; [8]
  RM (membrane retention): 0.22(±0.03)
[2]; [9]
  RM (membrane retention): 0.00
[2]; [10]
  RM (membrane retention): 0.00
[2]; [11]
  RM (membrane retention): 0.19(±0.07)
[2]; [12]
  RM (membrane retention): 0.09(±0.03)
[2]; [13]
  RM (membrane retention): 0.00
[2]; [17]
  log Pe: -3.61±0.06 cm/s
[2]; [18]
  log Pe: -2.71(±0.04) cm/s

## COc1ccc2c(c1)c(CC(=O)O)c(C)n2C(=O)c1ccc(Cl)cc1 [Indomethacine]
[1]
  log Kp: -5.39 cm/s
[2]; [7]
  Papp at 4 h, 50 μM: 39.8 ×10⁻⁶ cm/s
[6]
  change of skin-PAMPA log Pe after membrane treatment at basic pH: remain constant

## c1ccc2cnccc2c1 [Isoquinoline]
[1]
  log Kp: -5.11 cm/s
[2]; [7]
  Papp at 4 h, 50 μM: 63.1 ×10⁻⁶ cm/s

## CC(C(=O)O)c1cccc(C(=O)c2ccccc2)c1 (centres unmarked) [Ketoprofen]
[1]
  log Kp: -5.22 cm/s

## COC(=O)c1ccc(O)cc1 [Methyl 4-hydroxybenzoate]
[1]
  log Kp: -5.12 cm/s

## COc1ccccc1 [Methyl phenyl ether (Anisole), Methyl phenyl ether]
[1]
  log Kp: -4.68 cm/s
[2]; [7]
  Papp at 4 h, 50 μM: 45.7 ×10⁻⁶ cm/s

## CN1C(C(=O)Nc2ccccn2)=C(O)c2ccccc2S1(=O)=O [Piroxicam]
[1]
  log Kp: -6.02 cm/s
[2]; [7]
  Papp at 4 h, 50 μM: 21.4 ×10⁻⁶ cm/s

## CC(=O)[C@H]1CC[C@H]2[C@@H]3CCC4=CC(=O)CC[C@]4(C)[C@H]3CC[C@]12C [Progesterone]
[1]
  log Kp: -4.90 cm/s
[2]; [14]
  Papp at 4 h, 50 μM: 77.6 ×10⁻⁶ cm/s
[2]; [19]
  Papp at 24 h, 50 μM: 25.7 ×10⁻⁶ cm/s
[2]; [15]
  Papp at 30 min, 50 μM: 15.5 ×10⁻⁶ cm/s
[2]; [16]
  Papp at 4 h, 50 μM: 13.2 ×10⁻⁶ cm/s
[2]; [20]
  Papp at 24 h, 50 μM: 20.4 ×10⁻⁶ cm/s
[2]; [7]
  Papp at 4 h, 50 μM: 74.1 ×10⁻⁶ cm/s
[2]; [8]
  RM (membrane retention): 0.50(±0.04)
[2]; [9]
  RM (membrane retention): 0.74(±0.01)
[2]; [10]
  RM (membrane retention): 0.88(±0.01)
[2]; [11]
  RM (membrane retention): 0.33(±0.01)
[2]; [12]
  RM (membrane retention): 0.62(±0.04)
[2]; [13]
  RM (membrane retention): 0.83(±0.02)
[2]; range over all incubation times (30 min, 4 h, 24 h), with and without stirring
  RM (membrane retention): 0.33-0.88
[2]; [18]
  log Pe: -3.25(±0.25) cm/s
[2]; without stirring, 4 h incubation, neutral form (donor pH 3.0, aminopyrine pH 7.0), acceptor pH 7.4, 32 °C
  log Pe: -4.88 cm/s

## Nc1ccccc1N [o-Phenylenediamine]
[1]
  log Kp: -6.70 cm/s
[2]; [17]
  log Pe: -5.42±0.02 cm/s

## CC(=O)CC(c1ccccc1)c1c(O)c2ccccc2oc1=O (centres unmarked) [warfarin]
[6]
  change of skin-PAMPA log Pe after membrane treatment at basic pH: slight increase at pH 9 and 10
